# From PubChem BioAssay AID320 (DTP/NCI, 2004)
# Where “and” joins values, the source holds several entries; their conditions need not be identical. Equal entries are not always repeated. Inconclusive results and toxic doses are left out.
# Tested on: BDF1 mice, P329 reticulum cell sarcoma ip, survival T/C
# Test: NCI In Vivo Anticancer Drug Screen. Data for tumor model P329 Reticulum Cell Sarcoma (intraperitoneal) in B6D2F1 (BDF1) mice
# Details: endpoint: median survival time, higher = longer survival
# Protocol: The antitumor activity of compounds was measured in mice bearing transplantable tumors. Survival or tumor size were measured and the results are expressed as the measurement made in the treated group (T) divided by the measurement made in the vehicle treated control group (C). The tumor model used in this assay is P329 Reticulum Cell Sarcoma (intraperitoneal) in B6D2F1 (BDF1) mice
# [1] = dose: 200.0 mg/kg/injection, schedule: Q01DX010 (ip), vehicle: saline
# [2] = dose: 37.5 mg/kg/injection, schedule: Q01DX010 (ip), vehicle: saline
# [3] = dose: 75.0 mg/kg/injection, schedule: Q01DX010 (ip), vehicle: saline
# [4] = dose: 150.0 mg/kg/injection, schedule: Q01DX010 (ip), vehicle: saline
# [5] = dose: 3.13 mg/kg/injection, schedule: Q01DX010 (ip), vehicle: saline
# [6] = dose: 6.25 mg/kg/injection, schedule: Q01DX010 (ip), vehicle: saline
# [7] = dose: 12.5 mg/kg/injection, schedule: Q01DX010 (ip), vehicle: saline
# [8] = dose: 25.0 mg/kg/injection, schedule: Q01DX010 (ip), vehicle: saline
# [9] = dose: 1.5 mg/kg/injection, schedule: Q01DX010 (ip), vehicle: saline
# [10] = dose: 3.0 mg/kg/injection, schedule: Q01DX010 (ip), vehicle: saline
# [11] = dose: 6.0 mg/kg/injection, schedule: Q01DX010 (ip), vehicle: saline
# [12] = dose: 12.0 mg/kg/injection, schedule: Q01DX010 (ip), vehicle: saline
# [13] = dose: 31.3 mg/kg/injection, schedule: Q01DX010 (ip), vehicle: saline
# [14] = dose: 125.0 mg/kg/injection, schedule: Q01DX010 (ip), vehicle: saline
# [15] = dose: 50.0 mg/kg/injection, schedule: Q01DX010 (ip), vehicle: saline
# [16] = dose: 100.0 mg/kg/injection, schedule: Q01DX010 (ip), vehicle: saline
# [17] = dose: 62.5 micrograms/kg/injection, schedule: Q01DX010 (ip), vehicle: saline
# [18] = dose: 125.0 micrograms/kg/injection, schedule: Q01DX010 (ip), vehicle: saline
# [19] = dose: 250.0 micrograms/kg/injection, schedule: Q01DX010 (ip), vehicle: saline
# [20] = dose: 500.0 micrograms/kg/injection, schedule: Q01DX010 (ip), vehicle: saline
# [21] = dose: 5.0 mg/kg/injection, schedule: Q01DX010 (ip), vehicle: saline
# [22] = dose: 10.0 mg/kg/injection, schedule: Q01DX010 (ip), vehicle: saline
# [23] = dose: 0.5 mg/kg/injection, schedule: Q01DX010 (ip), vehicle: saline
# [24] = dose: 1.0 mg/kg/injection, schedule: Q01DX010 (ip), vehicle: saline
# [25] = dose: 20.0 mg/kg/injection, schedule: Q01DX010 (ip), vehicle: saline
smiles,measurement,setting,value
Clc1ccc(C(c2ccccc2Cl)C(Cl)Cl)cc1 (centres undefined),T/C,"dose: 62.5 mg/kg/injection, schedule: Q01DX010 (sc), vehicle: steriod suspending solution",100 % of control
same,T/C,"dose: 125.0 mg/kg/injection, schedule: Q01DX010 (sc), vehicle: steriod suspending solution",100 % of control
same,T/C,"dose: 250.0 mg/kg/injection, schedule: Q01DX010 (sc), vehicle: steriod suspending solution",107 % of control
same,T/C,"dose: 500.0 mg/kg/injection, schedule: Q01DX010 (sc), vehicle: steriod suspending solution",103 % of control
O=c1cnn(C2OC(CO)C(O)C2O)c(=O)[nH]1 (centres undefined),T/C,[1],116 % of control
CN(C)c1nc(N(C)C)nc(N(C)C)n1,T/C,"dose: 18.8 mg/kg/injection, schedule: Q01DX010 (ip), vehicle: saline",96 % of control and 103 % of control
same,T/C,[2],92 % of control and 100 % of control
same,T/C,[3],92 % of control and 107 % of control
same,T/C,[4],107 % of control and 114 % of control
C[C@H]1C(=O)O[C@@H]2CCN3CC=C(COC(=O)[C@](C)(O)[C@@]1(C)O)[C@H]23,T/C,[5],106 % of control and 107 % of control
same,T/C,[6],103 % of control and 107 % of control
same,T/C,[7],103 % of control
same,T/C,[8],100 % of control and 103 % of control
Nc1ncnc2[nH]ncc12,T/C,[9],107 % of control
same,T/C,[10],111 % of control
same,T/C,[11],123 % of control
same,T/C,[12],88 % of control and 103 % of control
N=C(N)c1ccc(Nc2ccc(C(=N)N)cc2)cc1,T/C,[9],93 % of control
same,T/C,[10],87 % of control
same,T/C,[11],96 % of control
same,T/C,[12],90 % of control
CCCSc1ncnc2nc[nH]c12,T/C,[13],115 % of control and 123 % of control
same,T/C,"dose: 62.5 mg/kg/injection, schedule: Q01DX010 (ip), vehicle: saline",107 % of control
same,T/C,[14],107 % of control
CC/C(=C(/CC)c1ccc(O)cc1)c1ccc(O)cc1,T/C,[7],107 % of control
same,T/C,[8],96 % of control and 107 % of control
same,T/C,[15],100 % of control and 103 % of control
same,T/C,[16],88 % of control
O[C@H](CN1CC1)[C@@H](O)CN1CC1,T/C,[17],106 % of control and 121 % of control
same,T/C,[18],123 % of control
same,T/C,[19],167 % of control
same,T/C,[20],166 % of control
Cc1cc(N(CCCl)CCCl)ccc1N=Nc1ccccc1C(=O)O,T/C,[21],107 % of control and 114 % of control
same,T/C,[22],114 % of control
C#CCN(C)Cc1ccccc1,T/C,[8],100 % of control
same,T/C,[15],100 % of control
same,T/C,[16],93 % of control
same,T/C,[1],106 % of control
C1CN1c1nc(N2CC2)nc(N2CC2)n1,T/C,"dose: 0.13 mg/kg/injection, schedule: Q01DX010 (ip), vehicle: saline",96 % of control and 108 % of control
same,T/C,"dose: 0.25 mg/kg/injection, schedule: Q01DX010 (ip), vehicle: saline",115 % of control
same,T/C,[23],170 % of control
same,T/C,[24],150 % of control
Cn1cnc([N+](=O)[O-])c1Sc1nc(N)nc2nc[nH]c12,T/C,"dose: 2.5 mg/kg/injection, schedule: Q01DX010 (ip), vehicle: saline",150 % of control
same,T/C,[22],100 % of control
CN(C)/N=N/c1nc[nH]c1C(N)=O,T/C,[8],121 % of control
same,T/C,[16],169 % of control
same,T/C,[1],100 % of control and 110 % of control
CC[C@]1(O)C[C@H]2CN(CCc3c([nH]c4ccccc34)[C@@](C(=O)OC)(c3cc4c(cc3OC)N(C=O)[C@H]3[C@@](O)(C(=O)OC)[C@H](OC(C)=O)[C@]5(CC)C=CCN6CC[C@]43[C@@H]65)C2)C1,T/C,"dose: 0.03 mg/kg/injection, schedule: Q01DX010 (ip), vehicle: saline",100 % of control and 105 % of control
same,T/C,"dose: 0.06 mg/kg/injection, schedule: Q01DX010 (ip), vehicle: saline",104 % of control and 113 % of control
same,T/C,"dose: 0.12 mg/kg/injection, schedule: Q01DX010 (ip), vehicle: saline",114 % of control
O=c1[nH]cc(F)c(=O)[nH]1,T/C,[21],123 % of control
same,T/C,[25],161 % of control and 162 % of control
CO[C@H](C(=O)[C@@H](O)[C@@H](C)O)[C@@H]1Cc2cc3cc(OC4CC(OC5CC(O)C(O)C(C)O5)C(O)C(C)O4)c(C)c(O)c3c(O)c2C(=O)[C@H]1OC1CC(OC2CC(OC3CC(C)(O)C(O)C(C)O3)C(O)C(C)O2)C(O)C(C)O1 (some centres undefined),T/C,[23],103 % of control
same,T/C,[24],90 % of control
COS(C)(=O)=O,T/C,[7],100 % of control
same,T/C,[8],93 % of control
same,T/C,[15],116 % of control
CN(C)c1ccc(/C=C/c2ccnc3ccccc23)cc1,T/C,[21],100 % of control and 103 % of control
same,T/C,[22],92 % of control and 107 % of control
same,T/C,[25],96 % of control and 103 % of control
same,T/C,"dose: 40.0 mg/kg/injection, schedule: Q01DX010 (ip), vehicle: saline",92 % of control and 100 % of control
CC(CCC(C)OS(C)(=O)=O)OS(C)(=O)=O (centres undefined),T/C,"dose: 2.0 mg/kg/injection, schedule: Q01DX010 (ip), vehicle: saline",100 % of control and 107 % of control
same,T/C,"dose: 4.0 mg/kg/injection, schedule: Q01DX010 (ip), vehicle: saline",103 % of control and 107 % of control
same,T/C,"dose: 8.0 mg/kg/injection, schedule: Q01DX010 (ip), vehicle: saline",114 % of control and 115 % of control
CCn1cnc2c(=S)nc[nH]c21,T/C,"dose: 15.6 mg/kg/injection, schedule: Q01DX010 (ip), vehicle: saline",111 % of control and 114 % of control
same,T/C,[13],114 % of control and 123 % of control
same,T/C,[14],89 % of control and 100 % of control
CS(=O)(=O)OCCN(CCOS(C)(=O)=O)c1ccc(N=O)cc1,T/C,[24],107 % of control
O=C(Nc1ccc(C2=NCCN2)cc1)c1cccc(C(=O)Nc2ccc(C3=NCCN3)cc2)c1,T/C,"dose: 16.0 mg/kg/injection, schedule: Q01DX010 (ip), vehicle: saline",150 % of control and 176 % of control
same,T/C,"dose: 32.0 mg/kg/injection, schedule: Q01DX010 (ip), vehicle: saline",169 % of control and 180 % of control
same,T/C,"dose: 64.0 mg/kg/injection, schedule: Q01DX010 (ip), vehicle: saline",184 % of control and 196 % of control
CO[C@@H]1[C@@H](OC2OC(C)C(OC3CC(C)(O)C(OC(=O)CC(C)C)C(C)O3)C(N(C)C)C2O)[C@@H](CC=O)C[C@@H](C)C(=O)/C=C/C2O[C@H]2C[C@@H](C)OC(=O)C[C@H]1OC(C)=O (some centres undefined),T/C,[2],100 % of control
same,T/C,[3],100 % of control and 107 % of control
same,T/C,[4],103 % of control and 107 % of control
same,T/C,"dose: 300.0 mg/kg/injection, schedule: Q01DX010 (ip), vehicle: saline",107 % of control and 114 % of control
O=NN(CCCl)C(=O)NCCCl,T/C,[5],158 % of control
same,T/C,[6],157 % of control and 158 % of control
same,T/C,[7],103 % of control
COC(=O)[C@@H]1c2cc3c(c(O)c2[C@@H](OC2OC(C)C(OC)C(C)(OC)C2OC)C[C@]1(C)O)C(=O)c1c(O)cc2c(c1C3=O)O[C@H]1O[C@]2(C)[C@H](O)[C@@H](N(C)C)[C@@H]1O (some centres undefined),T/C,[17],100 % of control
same,T/C,[18],93 % of control and 100 % of control
same,T/C,[19],90 % of control and 100 % of control
same,T/C,[20],93 % of control and 100 % of control
CS(=O)(=O)OCCC(=O)N1CCN(C(=O)CCOS(C)(=O)=O)CC1,T/C,[8],117 % of control
same,T/C,[1],89 % of control
